≈ marks a conversion by molar mass, not a printed value.
Assays:
[1] = MTT assay, cytotoxic activity; format: cell-based; conditions: human, HaCaT cells (immortal keratinocytes); MTT, 72 h, normal cell line; read-out: IC50 HaCaT
Experimental: (§1) Cells were seeded in 6 mL medium in a tissue culture flask (50 mL) in a 37 °C/5% CO2 humidified incubator. […] MTT analysis was performed according to a previous study.[59] Untreated cells were used as controls. Cell absorbance results were inserted into the formula for the relative MTT level (%). It allows to calculate the viability of cells under the influence of the tested compounds. Cell viability was expressed as the percentage of MTT reduction in cells treated with tested compounds compared to the control sample. The relative MTT level was calculated using the formula [100%] = A/B × 100% where A—the test sample absorbance and B—the control sample absorbance.

[2] = system: E. coli ATCC 25922; assay: MIC, twofold microdilution, standard strain; format: cell-based, Escherichia coli; conditions: Escherichia coli, ATCC25922; standard strain, 18 h
[3] = system: E. coli 520; assay: MIC, twofold microdilution, clinical strain; format: cell-based; conditions: Escherichia coli, 18 h
[4] = system: S. aureus NCTC 4163; assay: MIC, twofold microdilution, standard strain; format: cell-based; conditions: Staphylococcus aureus, NCTC4163, 18 h
[5] = system: M. tuberculosis Spec. 192; assay: Tuberculostatic activity, Microplate Alamar Blue Assay (MIC); format: cell-based; conditions: Mycobacterium tuberculosis, MABA, read-out: MIC M. tuberculosis Spec. 192 (sensitive to tuberculostatics)
[6] = system: S. aureus ATCC 29213; assay: MIC, twofold microdilution, standard strain; format: cell-based; conditions: Staphylococcus aureus, ATCC29213, 18 h
[7] = system: S. epidermidis 5253; assay: MIC, twofold microdilution, clinical strain; format: cell-based, Staphylococcus epidermidis; conditions: for MIC S. epidermidis 5253: 18 h; for MIC: Staphylococcus epidermidis, 5253, 18 h
[8] = system: E. cloacae 8; assay: MIC, twofold microdilution, clinical strain; format: cell-based, Escherichia cloacae; conditions: Enterobacter cloacae, 8; clinical strain, 18 h
[9] = system: S. aureus 5595; assay: MIC, twofold microdilution, clinical strain; format: cell-based; conditions: Staphylococcus aureus, 18 h
[10] = system: K. pneumoniae 28; assay: MIC, twofold microdilution, clinical strain; format: cell-based; conditions: Klebsiella pneumoniae, 18 h
[11] = system: M. tuberculosis H37Rv; assay: Tuberculostatic activity, Microplate Alamar Blue Assay (MIC); format: cell-based, Mycobacterium tuberculosis; conditions: Mycobacterium tuberculosis, H37RV; MABA; read-out: MIC M. tuberculosis H37Rv
[12] = system: S. aureus T5595; assay: MIC, twofold microdilution, clinical strain; format: cell-based, Staphylococcus aureus; conditions: Staphylococcus aureus, T5595, 18 h
[13] = system: S. epidermidis ATCC 12228; assay: MIC, twofold microdilution, standard strain; format: cell-based; conditions: Staphylococcus epidermidis, ATCC12228, 18 h
[14] = system: M. tuberculosis Spec 210; assay: microbe, parasite or virus in culture; format: cell-based, Mycobacterium tuberculosis; conditions: M. tuberculosis Spec. 210
[15] = system: S. aureus ATCC 25923; assay: MIC, twofold microdilution, standard strain; format: cell-based; conditions: Staphylococcus aureus, ATCC25923, 18 h
[16] = system: P. aeruginosa 659; assay: MIC, twofold microdilution, clinical strain; format: cell-based; conditions: Pseudomonas aeruginosa, 18 h
[17] = system: clinical bacterial strains; assay: MIC, clinical isolates as groups of strains; format: cell-based; conditions: for MIC: clinical strains, read-out: MIC against selected E. coli and E. cloacae strains
[18] = system: Staphylococci (standard strains); assay: MIC, standard Gram-positive strains as a panel; format: cell-based, S. aureus, S. epidermidis; conditions: standard Gram-positive strains of Table 1; read-out: MIC toward standard Staphylococci (range over strains)
[19] = system: K. pneumoniae 510; assay: MIC, twofold microdilution, clinical strain; format: cell-based, Klebsiella pneumoniae; conditions: Klebsiella pneumoniae, 510; clinical strain, 18 h
[20] = system: PC3 cells; assay: MTT assay, cytotoxic activity; format: cell-based, human; conditions: Homo sapiens, PC-3, 72 h, MTT, 72 h
Experimental: as §1, with “Metastatic prostate cancer (PC3) and human immortal keratinocyte (HaCaT) cell lines were purchased from the American Type Culture Collection (ATCC, Rockville, MD, USA) and cultured in MEM (minimal essential medium, Thermo Sci, USA), RPMI 1640 (Roswell Park Memorial Institute, Biowest SAS, France), and DMEM (Dulbecco’s Modified Eagle’s Medium, Biowest SAS, France). Cells” for “Cells”

[21] = system: S. pasteuri KR 4358; assay: MIC, twofold microdilution, clinical strain; format: cell-based; conditions: Staphylococcus pasteuri, KR4358, 18 h
[22] = system: S. aureus 180; assay: MIC, twofold microdilution, clinical strain; format: cell-based; conditions: Staphylococcus aureus, 18 h
[23] = system: P. aeruginosa ATCC 15442; assay: MIC, twofold microdilution, standard strain; format: cell-based, Pseudomonas aeruginosa; conditions: Pseudomonas aeruginosa, ATCC15442; standard strain, 18 h
[24] = system: S. epidermidis KR4243/1; assay: MIC, twofold microdilution, clinical strain; format: cell-based; conditions: Staphylococcus epidermidis, 18 h
[25] = system: E. coli 600; assay: MIC, twofold microdilution, clinical strain; format: cell-based, Escherichia coli; conditions: Escherichia coli, 600, 18 h
[26] = system: S. aureus ATCC 6538; assay: MIC, twofold microdilution, standard strain; format: cell-based, Staphylococcus aureus; conditions: Staphylococcus aureus, ATCC6538; standard strain, 18 h
[27] = system: P. aeruginosa 37; assay: MIC, twofold microdilution, clinical strain; format: cell-based; conditions: Pseudomonas aeruginosa, 18 h
[28] = system: S. epidermidis 4341; assay: MIC, twofold microdilution, clinical strain; format: cell-based; conditions: Staphylococcus epidermidis, 18 h
[29] = system: S. aureus T5591; assay: MIC, twofold microdilution, clinical strain; format: cell-based, Staphylococcus aureus; conditions: Staphylococcus aureus, T5591, 18 h
[30] = system: S. epidermidis ATCC 35984; assay: MIC, twofold microdilution, standard strain; format: cell-based; conditions: Staphylococcus epidermidis, ATCC35984, 18 h
[31] = system: E. coli 951; assay: MIC, twofold microdilution, clinical strain; format: cell-based; conditions: Escherichia coli, 18 h
[32] = system: P. aeruginosa ATCC 15442 and E. coli ATCC 25922; assay: MIC, standard Gram-negative rods as a panel; format: cell-based; conditions: P. aeruginosa ATCC 15442, E. coli ATCC 25922; read-out: MIC against standard Gram-negative rods (range over strains)

Row | Structure (SMILES) | IC50 at 72 h [1] [µM] | MIC [2] [µg/mL] | MIC [3] [µg/mL] | MIC [4] [µg/mL] | MIC [5] [µg/mL] | MIC [6] [µg/mL] | MIC S. epidermidis 5253 [7] [µg/mL] | MIC [7] [µg/mL] | MIC [8] [µg/mL] | MIC [9] [µg/mL] | MIC [10] [µg/mL] | MIC [11] [µg/mL] | MIC [12] [µg/mL] | MIC [13] [µg/mL] | fold more effective than the reference tuberculostatics [14] | MIC [15] [µg/mL] | MIC [16] [µg/mL] | MIC [17] [µg/mL] | MIC [19] [µg/mL] | IC50 [20] [µM] | also measured
1 | O=C(O)c1cn(C2CC2)c2cc(N3CCN(C(=O)CCCl)CC3)c(F)cc2c1=O [Compound 4, 7-[4-(3-Chloropropionyl)-piperazin-1-yl]-1-cyclopropyl-6-fluoro-4-oxo-1,4-dihydro-quinoline-3-carboxylic Acid] | > 100 | 3.2 (≈ 7.59 µM) | 0.8 (≈ 1.9 µM) | 0.2 (≈ 0.474 µM) | 1 (≈ 2.37 µM) | 0.2 (≈ 0.474 µM) | 25.6 (≈ 60.7 µM) | 12.8 to 25.6 (≈ 30.3 to 60.7 µM) | 0.8 (≈ 1.9 µM) | 0.2 (≈ 0.474 µM) | > 25.6 | 2 (≈ 4.74 µM) | 0.4 (≈ 0.948 µM) | 0.2 (≈ 0.474 µM) | 8–32 fold | 0.4 (≈ 0.948 µM) | > 25.6 | 0.1 to 0.8 (≈ 0.237 to 1.9 µM) | > 25.6 | 51.6 ± 8.1 | fold more effective than CP ([17]; S. aureus 180 and 5595): 2.5 fold; share of the reference (CP) activity ([17]; S. aureus T5595 and T5591): 62.5%; MIC [18]: 0.1 to 0.8 µg/mL (≈ 0.237 to 1.9 µM); MIC [21]: 0.2 µg/mL (≈ 0.474 µM); MIC [22]: 0.2 µg/mL (≈ 0.474 µM); MIC [23]: 12.8 µg/mL (≈ 30.3 µM); MIC [24]: 0.2 µg/mL (≈ 0.474 µM); MIC [25]: 0.8 µg/mL (≈ 1.9 µM); MIC [26]: 0.2 µg/mL (≈ 0.474 µM); MIC [27]: > 25.6 µg/mL; MIC [28]: 6.4 µg/mL (≈ 15.2 µM); MIC [29]: 0.4 µg/mL (≈ 0.948 µM); MIC [30]: 0.2 µg/mL (≈ 0.474 µM); MIC [31]: 25.6 µg/mL (≈ 60.7 µM)
2 | O=C(O)c1cn(C2CC2)c2cc(N3CCN(C(=O)CBr)CC3)c(F)cc2c1=O [Compound 8, 7-[4-(2-Bromoacetyl)-piperazin-1-yl]-1-cyclopropyl-6-fluoro-4-oxo-1,4-dihydro-quinoline-3-carboxylic Acid] | 44.9 ± 9 | 0.2 (≈ 0.442 µM) | 0.2 (≈ 0.442 µM) | 0.2 (≈ 0.442 µM) | 32 (≈ 70.8 µM) | 0.4 (≈ 0.884 µM) | 25.6 (≈ 56.6 µM) | 12.8 to 25.6 (≈ 28.3 to 56.6 µM) | 0.8 (≈ 1.77 µM) | 0.4 (≈ 0.884 µM) | > 25.6 | 32 (≈ 70.8 µM) | 0.8 (≈ 1.77 µM) | 0.2 (≈ 0.442 µM) | 2–8 fold | 0.2 (≈ 0.442 µM) | 6.4 (≈ 14.2 µM) | 0.1 to 0.8 (≈ 0.221 to 1.77 µM) | 25.6 (≈ 56.6 µM) | 39.6 ± 4.3 | MIC [32]: ≤ 1 µg/mL; MIC [21]: 0.2 µg/mL (≈ 0.442 µM); MIC [22]: 0.8 µg/mL (≈ 1.77 µM); MIC [23]: 3.2 µg/mL (≈ 7.08 µM); MIC [24]: 0.4 µg/mL (≈ 0.884 µM); MIC [25]: 0.2 µg/mL (≈ 0.442 µM); MIC [26]: 0.2 µg/mL (≈ 0.442 µM); MIC [27]: 12.8 µg/mL (≈ 28.3 µM); MIC [28]: 12.8 µg/mL (≈ 28.3 µM); MIC [29]: 1.6 µg/mL (≈ 3.54 µM); MIC [30]: 0.2 µg/mL (≈ 0.442 µM); MIC [31]: 6.4 µg/mL (≈ 14.2 µM)
